# Laboratory results as given in PMC8699537, “In Vitro Anti-SARS-CoV-2 Activity of Selected Metal Compounds and Potential Molecular Basis for Their Actions Based on Computational Study” (Biomolecules, 2021).
# Like-named read-outs stand apart in the source and are kept apart here.
# Tests used:
# SARS-CoV-2 [1] = experiment: microbe, parasite or virus in culture; format: cell-based; conditions: for IC50 (half-maximal inhibitory concentration), DYRA / IC50: Calu-3 cells, SARS-CoV-2 lineage B.1, 48h, DYRA; for IC50: read-out: IC50 (half-maximal inhibitory concentration), DYRA
# SARS-CoV-2 [2] = format: cell-based; conditions: for IC50 (half-maximal inhibitory concentration), SYRA: DYRA supernatants on VERO E6 cells, 24 h
# Calu-3 cells = experiment: Cytotoxicity, CellTiter-Glo 2.0 Luminescent Cell Viability Assay; conditions: read-out: CC50 (half-maximal cytotoxic concentration), 48h exposure
# SARS-CoV-2 [3] = tested on: SARS-CoV-2; design: method as in PMID 32442105; conditions: Huh-7 cells; viral RNA in cell supernatant; cited from earlier work
# Huh-7 cells = tested on: Huh-7 cells; design: method as in PMID 32442105; conditions: cited from earlier work
# in vitro = conditions: human
structure (smiles),measurement,setting,value
CCOC(=O)CN(C)C1=[S+][Au-]([Br])([Br])[S]1 [AuL12],"IC50 (half-maximal inhibitory concentration), DYRA",SARS-CoV-2 [1],Not active ^3
same,"IC50 (half-maximal inhibitory concentration), SYRA",SARS-CoV-2 [2],Not active ^3
same,CC50,Calu-3 cells,19 µM
CC(=O)OC[C@H]1O[C@@H]([S-])[C@H](OC(C)=O)[C@@H](OC(C)=O)[C@@H]1OC(C)=O.CCP(CC)CC.[Au+] [Auranofin],"IC50 (half-maximal inhibitory concentration), DYRA",SARS-CoV-2 [1],Not active ^3
same,"IC50 (half-maximal inhibitory concentration), SYRA",SARS-CoV-2 [2],Not active ^3
same,IC50,SARS-CoV-2 [3],1.4 µM
same,CC50,Huh-7 cells,5.7 µM
same,CC50,Calu-3 cells,3.7 µM
Cl.[Cl-].[Cl-].[Cl-].[Ru+3].c1ccc2[nH]ncc2c1.c1ccc2[nH]ncc2c1.c1ccc2[nH]ncc2c1 [KP1019],IC50,SARS-CoV-2 [1],8.8 ± 1.5 µM
same,CC50,Calu-3 cells,60 µM
CCC(CC)COC(=O)[C@H](C)N[P@](=O)(OC[C@H]1O[C@@](C#N)(c2ccc3c(N)ncnn23)[C@H](O)[C@@H]1O)Oc1ccccc1 [Remdesivir],Selectivity Index,"SARS-CoV-2 [1]; CC50/IC50 ratio, IC50 from DYRA",485
same,IC50,SARS-CoV-2 [1]; Severe acute respiratory syndrome coronavirus 2,0.2 ± 0.05 µM
same,CC50,in vitro,97 µM
Cl.[Cl-].[Cl-].[Cl-].[Ru+3].c1c[nH]cn1.c1c[nH]cn1 [NAMI-A],CC50,Calu-3 cells,> 200 µM
CS(C)=O.[Cl-].[Cl-].[Cl-].[Cl-].[Ru+3].c1c[nH+]c[nH]1.c1c[nH]cn1 [NAMI-A],"IC50 (half-maximal inhibitory concentration), DYRA",SARS-CoV-2 [1],Not active ^3
same,"IC50 (half-maximal inhibitory concentration), SYRA",SARS-CoV-2 [2],Not active ^3
CC[P](CC)(CC)[Au][I] [Au(Pet3)I],"IC50 (half-maximal inhibitory concentration), DYRA",SARS-CoV-2 [1],Not active ^3
same,"IC50 (half-maximal inhibitory concentration), SYRA",SARS-CoV-2 [2],Not active ^3
same,CC50,Calu-3 cells,12 µM
"[Cl][Sb]([Cl])[Cl] [SbCl3, antimony trichloride]",IC50,SARS-CoV-2 [1],31.1 ± 15.3 µM
same,CC50,Calu-3 cells,200 µM
"[Cl-].[Cl-].[Ti+4].c1cc[cH-]c1.c1cc[cH-]c1 [TiCp2Cl2, Titanocene dichloride]",IC50,"SARS-CoV-2 [2]; read-out: IC50 (half-maximal inhibitory concentration), SYRA",47.3 µM
same,CC50,Calu-3 cells,> 200 µM
